Results as given in US9340590B2 (priority 2011, dated 2016).
Positions of bridges follow the written chain, without caps; N, C: chain ends. Residues, ends and D or L forms follow the SMILES beside them.

How the values were obtained:
Assay in all cases: cell-based
[1] = target: hNav1.7 (Homo sapiens, UniProt Q15858); assay type: cell-based; conditions: IonWorks Quattro, use-dependent block, hNav1.7; read-out: IWQ Use Nav1.7
[2] = target: hNav1.5 (Homo sapiens, UniProt Q14524); conditions: IonWorks Quattro, use-dependent block, hNav1.5; read-out: IWQ Use Nav1.5
[3] = target: hNav1.3 (Homo sapiens, UniProt Q9NY46); conditions: IonWorks Quattro, use-dependent block, hNav1.3; read-out: IWQ Use Nav1.3

Sequence of hNav1.7 (Q15858 whole entry, looked up): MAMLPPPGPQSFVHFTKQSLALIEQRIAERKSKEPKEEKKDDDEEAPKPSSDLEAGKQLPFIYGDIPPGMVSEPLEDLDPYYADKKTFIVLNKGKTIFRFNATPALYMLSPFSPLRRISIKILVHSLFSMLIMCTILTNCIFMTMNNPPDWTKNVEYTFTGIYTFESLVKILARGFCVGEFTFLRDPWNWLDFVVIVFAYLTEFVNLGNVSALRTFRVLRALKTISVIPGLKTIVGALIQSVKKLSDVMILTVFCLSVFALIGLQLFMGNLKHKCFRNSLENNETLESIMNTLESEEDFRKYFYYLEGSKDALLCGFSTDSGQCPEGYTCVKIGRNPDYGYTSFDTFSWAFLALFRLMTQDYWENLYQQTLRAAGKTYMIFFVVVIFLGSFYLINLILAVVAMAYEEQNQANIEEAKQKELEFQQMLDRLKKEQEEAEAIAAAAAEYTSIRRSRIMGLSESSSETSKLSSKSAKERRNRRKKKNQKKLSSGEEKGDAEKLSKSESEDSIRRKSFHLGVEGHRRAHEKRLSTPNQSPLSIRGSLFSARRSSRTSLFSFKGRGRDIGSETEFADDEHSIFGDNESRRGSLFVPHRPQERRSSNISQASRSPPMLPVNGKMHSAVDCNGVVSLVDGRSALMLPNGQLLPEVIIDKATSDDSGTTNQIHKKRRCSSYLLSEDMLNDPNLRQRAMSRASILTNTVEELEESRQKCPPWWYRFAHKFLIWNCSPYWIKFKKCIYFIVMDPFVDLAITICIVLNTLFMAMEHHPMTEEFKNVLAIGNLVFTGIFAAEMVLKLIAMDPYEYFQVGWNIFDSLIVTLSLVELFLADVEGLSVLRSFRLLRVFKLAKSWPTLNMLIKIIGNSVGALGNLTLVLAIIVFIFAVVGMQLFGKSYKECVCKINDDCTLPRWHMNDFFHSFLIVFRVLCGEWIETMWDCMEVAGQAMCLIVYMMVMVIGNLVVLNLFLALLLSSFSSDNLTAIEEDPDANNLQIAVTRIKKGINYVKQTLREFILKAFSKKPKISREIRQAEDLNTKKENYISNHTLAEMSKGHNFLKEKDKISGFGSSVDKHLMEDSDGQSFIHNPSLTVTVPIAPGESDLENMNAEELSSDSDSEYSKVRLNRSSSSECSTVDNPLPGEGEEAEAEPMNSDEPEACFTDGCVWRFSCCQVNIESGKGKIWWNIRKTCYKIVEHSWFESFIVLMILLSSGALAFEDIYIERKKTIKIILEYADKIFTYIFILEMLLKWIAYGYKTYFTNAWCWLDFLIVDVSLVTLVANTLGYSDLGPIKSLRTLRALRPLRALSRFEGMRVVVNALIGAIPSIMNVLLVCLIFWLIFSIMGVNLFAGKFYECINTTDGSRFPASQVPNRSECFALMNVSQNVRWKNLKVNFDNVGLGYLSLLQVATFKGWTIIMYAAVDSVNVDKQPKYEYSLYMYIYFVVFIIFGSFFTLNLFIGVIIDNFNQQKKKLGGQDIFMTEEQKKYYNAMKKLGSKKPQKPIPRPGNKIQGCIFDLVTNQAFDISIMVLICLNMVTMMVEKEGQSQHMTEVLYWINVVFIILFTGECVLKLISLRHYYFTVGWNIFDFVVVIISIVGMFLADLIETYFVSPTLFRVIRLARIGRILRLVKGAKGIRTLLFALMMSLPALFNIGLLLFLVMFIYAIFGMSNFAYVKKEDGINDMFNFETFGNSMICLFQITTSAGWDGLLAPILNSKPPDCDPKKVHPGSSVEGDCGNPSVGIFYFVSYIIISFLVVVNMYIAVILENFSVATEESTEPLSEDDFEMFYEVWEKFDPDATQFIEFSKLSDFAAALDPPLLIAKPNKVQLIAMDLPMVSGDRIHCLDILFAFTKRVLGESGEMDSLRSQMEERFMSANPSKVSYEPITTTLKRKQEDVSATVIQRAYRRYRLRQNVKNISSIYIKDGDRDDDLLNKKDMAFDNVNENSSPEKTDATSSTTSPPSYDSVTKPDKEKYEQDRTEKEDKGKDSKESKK
Sequence of hNav1.5 (Q14524 whole entry, looked up): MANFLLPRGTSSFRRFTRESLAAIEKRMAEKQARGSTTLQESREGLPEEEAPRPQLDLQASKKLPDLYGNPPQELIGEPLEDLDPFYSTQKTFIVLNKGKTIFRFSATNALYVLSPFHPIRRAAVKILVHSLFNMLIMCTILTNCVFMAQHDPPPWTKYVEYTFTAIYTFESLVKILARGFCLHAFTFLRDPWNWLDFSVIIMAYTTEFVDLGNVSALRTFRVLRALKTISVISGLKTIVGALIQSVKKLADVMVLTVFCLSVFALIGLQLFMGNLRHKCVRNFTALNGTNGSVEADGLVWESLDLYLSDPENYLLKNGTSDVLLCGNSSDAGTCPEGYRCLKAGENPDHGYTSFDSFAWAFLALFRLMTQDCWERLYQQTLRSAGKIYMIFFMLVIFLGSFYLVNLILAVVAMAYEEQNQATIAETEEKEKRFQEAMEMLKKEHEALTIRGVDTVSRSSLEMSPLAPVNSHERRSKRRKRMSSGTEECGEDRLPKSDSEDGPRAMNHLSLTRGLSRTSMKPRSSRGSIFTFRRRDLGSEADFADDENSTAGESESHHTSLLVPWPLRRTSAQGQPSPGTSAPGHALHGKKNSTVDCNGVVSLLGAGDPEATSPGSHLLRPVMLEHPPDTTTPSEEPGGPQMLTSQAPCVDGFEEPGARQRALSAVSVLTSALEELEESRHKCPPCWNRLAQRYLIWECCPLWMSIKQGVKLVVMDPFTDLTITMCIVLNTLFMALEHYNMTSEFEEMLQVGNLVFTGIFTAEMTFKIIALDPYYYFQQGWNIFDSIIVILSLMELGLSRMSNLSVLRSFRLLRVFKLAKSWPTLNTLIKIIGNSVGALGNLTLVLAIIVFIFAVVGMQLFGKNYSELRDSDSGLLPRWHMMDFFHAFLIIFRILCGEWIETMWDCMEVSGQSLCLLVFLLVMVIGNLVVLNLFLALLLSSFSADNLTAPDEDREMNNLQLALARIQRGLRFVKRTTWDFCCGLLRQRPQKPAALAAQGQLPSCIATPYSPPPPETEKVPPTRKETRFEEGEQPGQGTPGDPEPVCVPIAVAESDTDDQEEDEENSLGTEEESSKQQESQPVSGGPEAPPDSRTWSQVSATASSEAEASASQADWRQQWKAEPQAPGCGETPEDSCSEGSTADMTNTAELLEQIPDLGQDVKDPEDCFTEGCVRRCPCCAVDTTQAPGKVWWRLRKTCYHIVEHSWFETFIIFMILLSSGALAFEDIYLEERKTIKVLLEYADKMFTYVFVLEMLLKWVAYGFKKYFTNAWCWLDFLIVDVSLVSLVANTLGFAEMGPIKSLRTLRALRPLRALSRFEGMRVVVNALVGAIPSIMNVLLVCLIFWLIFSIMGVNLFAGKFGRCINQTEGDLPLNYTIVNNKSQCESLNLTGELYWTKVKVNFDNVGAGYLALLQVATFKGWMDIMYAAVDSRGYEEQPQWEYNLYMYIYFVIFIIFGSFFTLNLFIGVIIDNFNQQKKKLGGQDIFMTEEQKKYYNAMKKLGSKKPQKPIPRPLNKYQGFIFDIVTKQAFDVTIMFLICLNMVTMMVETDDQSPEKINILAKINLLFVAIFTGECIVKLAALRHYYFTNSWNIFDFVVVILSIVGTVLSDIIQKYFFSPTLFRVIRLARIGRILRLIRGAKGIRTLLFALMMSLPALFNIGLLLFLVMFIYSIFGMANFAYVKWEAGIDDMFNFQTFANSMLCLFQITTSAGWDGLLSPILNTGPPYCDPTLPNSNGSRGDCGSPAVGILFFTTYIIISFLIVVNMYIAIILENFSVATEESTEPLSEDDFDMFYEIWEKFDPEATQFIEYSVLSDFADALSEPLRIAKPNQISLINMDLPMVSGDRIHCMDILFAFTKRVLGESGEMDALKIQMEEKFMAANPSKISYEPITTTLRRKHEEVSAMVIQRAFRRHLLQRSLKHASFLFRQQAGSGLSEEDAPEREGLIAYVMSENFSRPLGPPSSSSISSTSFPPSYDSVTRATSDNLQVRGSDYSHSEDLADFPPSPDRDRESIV

CC[C@H](C)[C@@H]1NC(=O)[C@@H]2CSSC[C@@H]3NC(=O)[C@H](C(C)C)NC(=O)[C@H](CC(C)C)NC(=O)[C@H](CC(N)=O)NC(=O)[C@@H]4CCCN4C(=O)[C@H](CCCNC(=N)N)NC(=O)[C@H](CSSC[C@H](NC(=O)[C@@H](N)CC(=O)O)C(=O)N[C@@H](CC(C)C)C(=O)NCC(=O)N[C@@H](C)C(=O)N[C@@H](Cc4ccccc4)C(=O)N[C@@H](CCCNC(=N)N)C(=O)N[C@@H](CCCCN)C(=O)N2)NC(=O)[C@H](CSSC[C@@H](C(=O)N[C@@H](CCCCN)C(=O)N[C@@H](Cc2ccc(O)cc2)C(=O)N[C@H](C(=O)N[C@@H](Cc2ccccc2)C(=O)O)C(C)C)NC(=O)[C@H](Cc2c[nH]c4ccccc24)NC(=O)[C@H](Cc2c[nH]cn2)NC(=O)[C@H](Cc2c[nH]cn2)NC(=O)[C@H]([C@@H](C)O)NC(=O)[C@H](CCCNC(=N)N)NC(=O)[C@H](CO)NC3=O)NC(=O)[C@H](CCCCN)NC(=O)[C@H](CC(=O)O)NC(=O)[C@H](CC(N)=O)NC(=O)[C@H](CC(=O)O)NC(=O)[C@@H]2CCCN2C1=O [compound 828] (H-DCLGAFRKCIPDNDKCCRPNLVCSRTHHWCKYVF-OH; disulfide 2-17, 9-23, 16-30)
IC50 [1]: > 5 µM
IC50 [2]: > 5 µM
IC50 [3]: > 5 µM

CC[C@H](C)[C@@H]1NC(=O)[C@@H]2CSSC[C@@H]3NC(=O)[C@H](C(C)C)NC(=O)[C@H](CC(C)C)NC(=O)[C@H](CC(N)=O)NC(=O)[C@@H]4CCCN4C(=O)[C@H](CCCNC(=N)N)NC(=O)[C@H](CSSC[C@H](NC(=O)[C@@H](N)CC(=O)O)C(=O)N[C@@H](CC(C)C)C(=O)NCC(=O)N[C@@H](C)C(=O)N[C@@H](Cc4ccccc4)C(=O)N[C@@H](CCCNC(=N)N)C(=O)N[C@@H](CCCCN)C(=O)N2)NC(=O)[C@H](CSSC[C@@H](C(=O)N[C@@H](CCCCN)C(=O)N[C@@H](Cc2ccc(O)cc2)C(=O)N[C@H](C(=O)N[C@@H](Cc2ccccc2)C(=O)O)C(C)C)NC(=O)[C@H](Cc2c[nH]c4ccccc24)NC(=O)[C@H](CCCCN)NC(=O)[C@H](Cc2c[nH]cn2)NC(=O)[C@H]([C@@H](C)O)NC(=O)[C@H](CCCNC(=N)N)NC(=O)[C@H](CO)NC3=O)NC(=O)[C@H](CCCCN)NC(=O)[C@H](CC(=O)O)NC(=O)[C@H](CC(N)=O)NC(=O)[C@H](CC(=O)O)NC(=O)[C@@H]2CCCN2C1=O [compound 829] (H-DCLGAFRKCIPDNDKCCRPNLVCSRTHKWCKYVF-OH; disulfide 2-17, 9-23, 16-30)
IC50 [1]: > 5 µM
IC50 [2]: > 5 µM
IC50 [3]: 2.3 µM

CC[C@H](C)[C@@H]1NC(=O)[C@@H]2CSSC[C@@H]3NC(=O)[C@H](C(C)C)NC(=O)[C@H](CC(C)C)NC(=O)[C@H](CC(N)=O)NC(=O)[C@@H]4CCCN4C(=O)[C@H](CCCNC(=N)N)NC(=O)[C@H](CSSC[C@H](NC(=O)[C@@H](N)CC(=O)O)C(=O)N[C@@H](CC(C)C)C(=O)NCC(=O)N[C@@H](C)C(=O)N[C@@H](Cc4ccccc4)C(=O)N[C@@H](CCCNC(=N)N)C(=O)N[C@@H](CCCCN)C(=O)N2)NC(=O)[C@H](CSSC[C@@H](C(=O)N[C@@H](CCCCN)C(=O)N[C@@H](Cc2ccc(O)cc2)C(=O)N[C@H](C(=O)N[C@@H](Cc2ccccc2)C(=O)O)C(C)C)NC(=O)[C@H](Cc2c[nH]c4ccccc24)NC(=O)[C@H](CC(C)C)NC(=O)[C@H](Cc2c[nH]cn2)NC(=O)[C@H]([C@@H](C)O)NC(=O)[C@H](CCCNC(=N)N)NC(=O)[C@H](CO)NC3=O)NC(=O)[C@H](CCCCN)NC(=O)[C@H](CC(=O)O)NC(=O)[C@H](CC(N)=O)NC(=O)[C@H](CC(=O)O)NC(=O)[C@@H]2CCCN2C1=O [compound 830] (H-DCLGAFRKCIPDNDKCCRPNLVCSRTHLWCKYVF-OH; disulfide 2-17, 9-23, 16-30)
IC50 [1]: > 5 µM
IC50 [2]: > 5 µM
IC50 [3]: > 5 µM

CC[C@H](C)[C@@H]1NC(=O)[C@@H]2CSSC[C@@H]3NC(=O)[C@H](C(C)C)NC(=O)[C@H](CC(C)C)NC(=O)[C@H](CC(N)=O)NC(=O)[C@@H]4CCCN4C(=O)[C@H](CCCNC(=N)N)NC(=O)[C@H](CSSC[C@H](NC(=O)[C@@H](N)CC(=O)O)C(=O)N[C@@H](CC(C)C)C(=O)NCC(=O)N[C@@H](C)C(=O)N[C@@H](Cc4ccccc4)C(=O)N[C@@H](CCCNC(=N)N)C(=O)N[C@@H](CCCCN)C(=O)N2)NC(=O)[C@H](CSSC[C@@H](C(=O)N[C@@H](CCCCN)C(=O)N[C@@H](Cc2ccc(O)cc2)C(=O)N[C@H](C(=O)N[C@@H](Cc2ccccc2)C(=O)O)C(C)C)NC(=O)[C@H](Cc2c[nH]c4ccccc24)NC(=O)[C@H](CCSC)NC(=O)[C@H](Cc2c[nH]cn2)NC(=O)[C@H]([C@@H](C)O)NC(=O)[C@H](CCCNC(=N)N)NC(=O)[C@H](CO)NC3=O)NC(=O)[C@H](CCCCN)NC(=O)[C@H](CC(=O)O)NC(=O)[C@H](CC(N)=O)NC(=O)[C@H](CC(=O)O)NC(=O)[C@@H]2CCCN2C1=O [compound 831] (H-DCLGAFRKCIPDNDKCCRPNLVCSRTHMWCKYVF-OH; disulfide 2-17, 9-23, 16-30)
IC50 [1]: > 5 µM
IC50 [2]: > 5 µM
IC50 [3]: 1.6 µM

CC[C@H](C)[C@@H]1NC(=O)[C@@H]2CSSC[C@@H]3NC(=O)[C@H](C(C)C)NC(=O)[C@H](CC(C)C)NC(=O)[C@H](CC(N)=O)NC(=O)[C@@H]4CCCN4C(=O)[C@H](CCCNC(=N)N)NC(=O)[C@H](CSSC[C@H](NC(=O)[C@@H](N)CC(=O)O)C(=O)N[C@@H](CC(C)C)C(=O)NCC(=O)N[C@@H](C)C(=O)N[C@@H](Cc4ccccc4)C(=O)N[C@@H](CCCNC(=N)N)C(=O)N[C@@H](CCCCN)C(=O)N2)NC(=O)[C@H](CSSC[C@@H](C(=O)N[C@@H](CCCCN)C(=O)N[C@@H](Cc2ccc(O)cc2)C(=O)N[C@H](C(=O)N[C@@H](Cc2ccccc2)C(=O)O)C(C)C)NC(=O)[C@H](Cc2c[nH]c4ccccc24)NC(=O)[C@H](CC(N)=O)NC(=O)[C@H](Cc2c[nH]cn2)NC(=O)[C@H]([C@@H](C)O)NC(=O)[C@H](CCCNC(=N)N)NC(=O)[C@H](CO)NC3=O)NC(=O)[C@H](CCCCN)NC(=O)[C@H](CC(=O)O)NC(=O)[C@H](CC(N)=O)NC(=O)[C@H](CC(=O)O)NC(=O)[C@@H]2CCCN2C1=O [compound 832] (H-DCLGAFRKCIPDNDKCCRPNLVCSRTHNWCKYVF-OH; disulfide 2-17, 9-23, 16-30)
IC50 [1]: > 5 µM
IC50 [2]: > 5 µM
IC50 [3]: 4.6 µM

CC[C@H](C)[C@@H]1NC(=O)[C@@H]2CSSC[C@@H]3NC(=O)[C@H](C(C)C)NC(=O)[C@H](CC(C)C)NC(=O)[C@H](CC(N)=O)NC(=O)[C@@H]4CCCN4C(=O)[C@H](CCCNC(=N)N)NC(=O)[C@H](CSSC[C@H](NC(=O)[C@@H](N)CC(=O)O)C(=O)N[C@@H](CC(C)C)C(=O)NCC(=O)N[C@@H](C)C(=O)N[C@@H](Cc4ccccc4)C(=O)N[C@@H](CCCNC(=N)N)C(=O)N[C@@H](CCCCN)C(=O)N2)NC(=O)[C@H](CSSC[C@@H](C(=O)N[C@@H](CCCCN)C(=O)N[C@@H](Cc2ccc(O)cc2)C(=O)N[C@H](C(=O)N[C@@H](Cc2ccccc2)C(=O)O)C(C)C)NC(=O)[C@H](Cc2c[nH]c4ccccc24)NC(=O)[C@@H]2CCCN2C(=O)[C@H](Cc2c[nH]cn2)NC(=O)[C@H]([C@@H](C)O)NC(=O)[C@H](CCCNC(=N)N)NC(=O)[C@H](CO)NC3=O)NC(=O)[C@H](CCCCN)NC(=O)[C@H](CC(=O)O)NC(=O)[C@H](CC(N)=O)NC(=O)[C@H](CC(=O)O)NC(=O)[C@@H]2CCCN2C1=O [compound 833] (H-DCLGAFRKCIPDNDKCCRPNLVCSRTHPWCKYVF-OH; disulfide 2-17, 9-23, 16-30)
IC50 [1]: > 5 µM
IC50 [2]: > 5 µM
IC50 [3]: > 5 µM

CC[C@H](C)[C@@H]1NC(=O)[C@@H]2CSSC[C@@H]3NC(=O)[C@H](C(C)C)NC(=O)[C@H](CC(C)C)NC(=O)[C@H](CC(N)=O)NC(=O)[C@@H]4CCCN4C(=O)[C@H](CCCNC(=N)N)NC(=O)[C@H](CSSC[C@H](NC(=O)[C@@H](N)CC(=O)O)C(=O)N[C@@H](CC(C)C)C(=O)NCC(=O)N[C@@H](C)C(=O)N[C@@H](Cc4ccccc4)C(=O)N[C@@H](CCCNC(=N)N)C(=O)N[C@@H](CCCCN)C(=O)N2)NC(=O)[C@H](CSSC[C@@H](C(=O)N[C@@H](CCCCN)C(=O)N[C@@H](Cc2ccc(O)cc2)C(=O)N[C@H](C(=O)N[C@@H](Cc2ccccc2)C(=O)O)C(C)C)NC(=O)[C@H](Cc2c[nH]c4ccccc24)NC(=O)[C@H](CCC(N)=O)NC(=O)[C@H](Cc2c[nH]cn2)NC(=O)[C@H]([C@@H](C)O)NC(=O)[C@H](CCCNC(=N)N)NC(=O)[C@H](CO)NC3=O)NC(=O)[C@H](CCCCN)NC(=O)[C@H](CC(=O)O)NC(=O)[C@H](CC(N)=O)NC(=O)[C@H](CC(=O)O)NC(=O)[C@@H]2CCCN2C1=O [compound 834] (H-DCLGAFRKCIPDNDKCCRPNLVCSRTHQWCKYVF-OH; disulfide 2-17, 9-23, 16-30)
IC50 [1]: > 5 µM
IC50 [2]: > 5 µM
IC50 [3]: 3.9 µM

CC[C@H](C)[C@@H]1NC(=O)[C@@H]2CSSC[C@@H]3NC(=O)[C@H](C(C)C)NC(=O)[C@H](CC(C)C)NC(=O)[C@H](CC(N)=O)NC(=O)[C@@H]4CCCN4C(=O)[C@H](CCCNC(=N)N)NC(=O)[C@H](CSSC[C@H](NC(=O)[C@@H](N)CC(=O)O)C(=O)N[C@@H](CC(C)C)C(=O)NCC(=O)N[C@@H](C)C(=O)N[C@@H](Cc4ccccc4)C(=O)N[C@@H](CCCNC(=N)N)C(=O)N[C@@H](CCCCN)C(=O)N2)NC(=O)[C@H](CSSC[C@@H](C(=O)N[C@@H](CCCCN)C(=O)N[C@@H](Cc2ccc(O)cc2)C(=O)N[C@H](C(=O)N[C@@H](Cc2ccccc2)C(=O)O)C(C)C)NC(=O)[C@H](Cc2c[nH]c4ccccc24)NC(=O)[C@H](CO)NC(=O)[C@H](Cc2c[nH]cn2)NC(=O)[C@H]([C@@H](C)O)NC(=O)[C@H](CCCNC(=N)N)NC(=O)[C@H](CO)NC3=O)NC(=O)[C@H](CCCCN)NC(=O)[C@H](CC(=O)O)NC(=O)[C@H](CC(N)=O)NC(=O)[C@H](CC(=O)O)NC(=O)[C@@H]2CCCN2C1=O [compound 835] (H-DCLGAFRKCIPDNDKCCRPNLVCSRTHSWCKYVF-OH; disulfide 2-17, 9-23, 16-30)
IC50 [1]: > 5 µM
IC50 [2]: > 5 µM
IC50 [3]: > 5 µM
